In patent US20250295658A1, “ANTIPARASITIC AGENTS AND METHODS” (Whitehead Institute for Biomedical Research, priority 2022, published 2025):

Columns and labels:
Toxoplasma gondii [1] = assay: Plaque assays with DAHP and BH4; assay type: cell-based; details: FIG. 1F
Description: Plaque Assays with DAHP and BH4
RHAku80 were maintained for at least two passages in DMEM and HPLM prior to beginning the plaque assay. Confluent human fibroblasts were maintained in 6-well plates in either DMEM or HPLM for at least 24 h prior to the start of the assay. To begin the experiment, parasites maintained in DMEM and HPLM were syringe released and filtered through a […]. Parasites were then counted and diluted such that each well received 500 parasites. Wells were then treated with the indicated concentrations of DAHP or PBS vehicle. For the BH4 rescue experiments, wells received 50 μM BH4 or the equivalent volume of DMSO vehicle. Plaques were allowed to grow for 6 days prior to fixation. For fixation, wells were first washed with PBS, then fixed for 10 min at room temperature with 100% ethanol. Wells were then stained for 10 min with crystal violet (12.5 g crystal violet, 125 ml 100% ethanol, 500 ml 1% ammonium oxalate). Wells were then washed three times with water and allowed to dry overnight.

NF54 P. falciparum = assay: SYBR Green I-based dose-response assay in Plasmodium falciparum; assay type: cell-based; details: atovaquone with 1 mM DAHP, FIGS. 2C-D
Description: The NF54 P. falciparum line was cultured and synchronized as described previously.^28,29 Cultures were kept at 37° C. in RPMI-1640 medium supplemented with 25 mM HEPES, 100 μM hypoxanthine, 0.5% Albumax II, 24 mM sodium bicarbonate, 25 μg/mL gentamicin (Life Technologies, Carlsbad, CA 11021-045) and gassed with 5% CO2, 1% O2, and 94% N2 mixture. Dose-Response Assay in Plasmodium falciparum A SYBR Green I-based assay was used to measure in vitro P. falciparum drug susceptibility.^30,31 Ring-stage NF54 parasites were seeded at 1% hematocrit and 1% starting parasitemia in 384-well black clear-bottom plates containing test compounds (stocks of 10 mM pyrimethamine, 0.1 mM atovaquone, and 10 mM DHA in DMSO) plated in triplicate in 12-point serial dilutions for 72 h. […] Lysis buffer (0.16% w/v saponin, 1.6% Triton X-100, 5 mM EDTA, and 20 mM Tris-HCl, pH 7.4) with a 1:1000 dilution of SYBR Green I fluorescent dye (Invitrogen) was added for at least 12 h, and fluorescence readings were taken (excitation at 494 nm, emission at 530 nm) using a SpectraMax M5 (Molecular Devices, Sunnyvale, CA) plate reader. IC50 values were calculated using a nonlinear regression curve fit in Graphpad Prism 9 in biological triplicate.

[2] = cited from earlier work
[3] = tested on: C57BL/6J mouse embryonic fibroblasts; assay: Proliferation of mouse embryonic fibroblasts in DAHP treatment; assay type: cell-based; details: 5 mM DAHP, 48 hours; FIG. 2E
Description: Proliferation of Mouse Embryonic Fibroblasts in DAHP Treatment Twenty-thousand immortalized C57BL/6J mouse embryonic fibroblasts were plated in a well of a 6-well plate and treated with 5 mM DAHP or PBS vehicle. The cells were allowed to grow for 48 hours, then trypsinized and counted. Population doublings were calculated as follows: [formula] [formula]

Toxoplasma gondii [4] = assay: Pyrimethamine/DAHP drug synergy lytic assays; assay type: cell-based; details: pyrimethamine in combination with 2.5 mM DAHP; FIGS. 1G-H
Description: Pyrimethamine/DAHP Drug Synergy Lytic Assays
96 well plates were utilized to generate 8-point dosage curves of parasites grown in various concentrations of pyrimethamine with and without 2.5 mM DAHP. At the start of the assay, prior to parasite harvest, 96 well plates containing confluent fibroblasts were set up with 1.33× the desired final drug concentrations in 150 μl of volume. This ensured that the addition of 50 μl of parasites would result in the desired 1× drug concentration of both pyrimethamine and DAHP. Wells designated as containing less than the maximum dosage of either drug (10 μg/ml pyrimethamine and 2.5 mM DAHP) received the equivalent volume of vehicle (ethanol for pyrimethamine, PBS for DAHP). Parasites were then force-lysed, filtered, and resuspended to a concentration of 5e5 parasites/ml. 50 μl of parasites were then added to each well, resulting in an infection of 2.5e4 parasites per well. Plates were then spun at 290 g for 5 min. Plates were then incubated for 3 days to allow for parasite plaquing. Plates were then washed with PBS followed by staining with crystal violet as conducted for plaque assays. Well staining was then quantified by plate reader at the 570 nm wavelength. […] Drug curves were then generated and IC50 values were calculated from biological triplicate experiments in GraphPad Prism 9.

[5] = tested on: DD-BFD2, CST10-fLuc, pSAG1-nLuc reporter strain; assay: Firefly and nano-luciferase assays of the DD-BFD2, CST10-fLuc, pSAG1-nLuc reporter strain; assay type: cell-based, Toxoplasma; details: 3 μM shield-1
From the text: This strain is able to recapitulate the biology of both the acute tachyzoite stage as well as the chronic bradyzoite stage. Differentiation from the tachyzoite to bradyzoite stage is mediated through the expression of Bradyzoite Formation Deficient 2 (BFD2) tagged with a degradation domain. Under standard conditions, the degradation domain ensures BFD2 is degraded from parasites, maintaining them in the tachyzoite stage. Upon the addition of the small-molecule shield-1, BFD2 is stabilized and causes differentiation of parasites to the bradyzoite stage.^34 The engineered parasite strain allows the use of a dual-luciferase system to report on differentiation status and general parasite viability. Expression of firefly luciferase is driven by fusion via t2a peptide to the bradyzoite marker CST10, whereas expression of nano-luciferase is driven by the tachyzoite promoter SAG1. Addition of shield-1 is able to simultaneously increase the CST10 bradyzoite marker while decreasing the SAGI tachyzoite marker (FIGS. 2G-H). […] This enables examination of the chronic parasite state with minimal interference on the endogenous circuity. Chemical screens of this engineered strain can therefore identify compounds that bias parasite state either to the tachyzoite or bradyzoite stage, as well as compounds capable of killing both stages simultaneously. […]

Nc1cc(O)nc(N)n1 [DAHP, 2,4-diamino-6-hydroxypyrimidine]
effect on parasite viability (plaque assay) (Toxoplasma gondii [1]; 2.5 mM DAHP): no apparent effect | parasite lytic cycle (plaque assay) (Toxoplasma gondii [1]; 5 mM DAHP): able to block the parasite lytic cycle | antiparasitic effect of DAHP with exogenous BH4 (Toxoplasma gondii [1]; exogenous BH4 (50 μM)): rescued | potentiating effect in combination with atovaquone (NF54 P. falciparum): no potentiating effect | solubility [2]: poor | growth of a proliferative mouse fibroblast cell line (population doublings) [3]: no effect | reduction in the pyrimethamine IC50 value (Toxoplasma gondii [4]): 70%

CC[C@H](C(=O)N1CCCC[C@H]1C(=O)O[C@H](CCc1ccc(OC)c(OC)c1)c1cccc(OCCN2CCOCC2)c1)c1cc(OC)c(OC)c(OC)c1 [shield-1]
CST10 bradyzoite marker (firefly luciferase reporter) ([5]; FIG. 2G): increase | SAG1 tachyzoite marker (nano-luciferase reporter) ([5]; FIG. 2H): decreasing
